Values of other authors as cited in patent US20120095087A1, “ENHANCED PRODUCTS BY SUSTAINABLE PROCESSES FOR MEDICINAL USE” (priority 2010, published 2012).

What was measured:
[1] = animal tests
5-HT1A receptor = molecular target: T1, 5-HT1A receptor (Homo sapiens, UniProt P08908)
T1 sequence (P08908 1-422): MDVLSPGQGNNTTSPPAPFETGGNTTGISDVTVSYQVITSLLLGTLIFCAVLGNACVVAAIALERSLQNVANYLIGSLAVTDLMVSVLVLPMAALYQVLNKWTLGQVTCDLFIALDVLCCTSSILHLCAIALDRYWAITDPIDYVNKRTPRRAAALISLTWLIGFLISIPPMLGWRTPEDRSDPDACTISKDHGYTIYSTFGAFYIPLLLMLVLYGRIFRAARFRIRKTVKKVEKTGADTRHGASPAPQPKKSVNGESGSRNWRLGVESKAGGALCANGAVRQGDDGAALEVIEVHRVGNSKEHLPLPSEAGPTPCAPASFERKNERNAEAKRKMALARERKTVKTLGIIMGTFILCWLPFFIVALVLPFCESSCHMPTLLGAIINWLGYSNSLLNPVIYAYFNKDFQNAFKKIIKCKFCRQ

gene ID1 = conditions: in vitro
GPR55 = GPR55 (Homo sapiens, UniProt Q9Y2T6); conditions: putative new cannabinoid receptor
cancer cell growth = conditions: low potency in non-cancer cells
CB2 receptors = CB2 receptors (Homo sapiens, UniProt P34972)
Chain of CB2 receptors (P34972 whole entry): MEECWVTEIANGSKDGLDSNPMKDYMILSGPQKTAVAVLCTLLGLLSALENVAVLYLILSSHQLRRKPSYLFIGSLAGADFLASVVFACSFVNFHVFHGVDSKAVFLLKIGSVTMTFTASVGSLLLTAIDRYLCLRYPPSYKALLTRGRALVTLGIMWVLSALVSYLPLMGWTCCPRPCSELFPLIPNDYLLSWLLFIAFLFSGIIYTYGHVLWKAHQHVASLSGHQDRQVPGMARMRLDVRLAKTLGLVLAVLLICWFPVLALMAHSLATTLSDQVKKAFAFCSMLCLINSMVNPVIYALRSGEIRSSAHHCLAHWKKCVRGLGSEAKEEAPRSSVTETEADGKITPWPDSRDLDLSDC

Chain of GPR55 (Q9Y2T6 whole entry, species assumed): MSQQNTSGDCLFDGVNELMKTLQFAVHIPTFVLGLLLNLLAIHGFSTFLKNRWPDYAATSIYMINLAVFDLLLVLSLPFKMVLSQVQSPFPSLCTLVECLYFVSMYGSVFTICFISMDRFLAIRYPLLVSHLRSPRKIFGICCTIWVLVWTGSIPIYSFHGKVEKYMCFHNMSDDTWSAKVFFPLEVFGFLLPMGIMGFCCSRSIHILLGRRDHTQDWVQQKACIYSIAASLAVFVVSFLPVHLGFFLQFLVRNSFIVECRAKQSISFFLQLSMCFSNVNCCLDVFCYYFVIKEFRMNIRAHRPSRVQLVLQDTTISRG

Row | SMILES | sedative effects [1] | action at 5-HT1A receptor (5-HT1A receptor) | activity of the gene ID1 (gene ID1) | action at GPR55 (GPR55) | cancer cell growth (cancer cell growth) | affinity for CB2 receptors (CB2 receptors) | potency relative to THC
1 | C=C(C)[C@@H]1CCC(C)=C[C@H]1c1c(O)cc(CCCCC)cc1O [Cannabidiol, cannabidiol] | sedative effects | agonist | downregulates | antagonist | inhibit cancer cell growth | no affinity | –
2 | CCCCCCC(C)(C)c1cc(O)c2c(c1)OC(C)(C)[C@@H]1CC=C(CO)C[C@@H]21 [HU-210] | – | – | – | – | – | – | about 100 times
